ChEMBL document CHEMBL2010718, “Human kallikrein 6 inhibitors with a para-amidobenzylanmine P1 group identified through virtual screening” (Bioorg Med Chem Lett, 2012)

Assays:
Plasma kallikrein = Plasma kallikrein (Homo sapiens, UniProt P03952); experiment: Inhibition of plasma kallikrein
Kallikrein-1 = Kallikrein-1 (Homo sapiens, UniProt P06870); experiment: Inhibition of human kallikrein 1
[1] = target: T1, Prostate-specific antigen (Homo sapiens, UniProt P07288); experiment: Inhibition of human kallikrein 3
T1 sequence (P07288 whole entry): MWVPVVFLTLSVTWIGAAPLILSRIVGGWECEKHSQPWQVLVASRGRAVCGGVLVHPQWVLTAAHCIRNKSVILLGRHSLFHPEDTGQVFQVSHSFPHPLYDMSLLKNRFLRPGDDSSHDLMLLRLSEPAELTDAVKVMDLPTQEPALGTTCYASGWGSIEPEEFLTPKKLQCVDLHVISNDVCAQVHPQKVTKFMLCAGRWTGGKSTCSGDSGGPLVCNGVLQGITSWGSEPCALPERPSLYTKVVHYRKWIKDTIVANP

Kallikrein-1, sequence (P06870 whole entry): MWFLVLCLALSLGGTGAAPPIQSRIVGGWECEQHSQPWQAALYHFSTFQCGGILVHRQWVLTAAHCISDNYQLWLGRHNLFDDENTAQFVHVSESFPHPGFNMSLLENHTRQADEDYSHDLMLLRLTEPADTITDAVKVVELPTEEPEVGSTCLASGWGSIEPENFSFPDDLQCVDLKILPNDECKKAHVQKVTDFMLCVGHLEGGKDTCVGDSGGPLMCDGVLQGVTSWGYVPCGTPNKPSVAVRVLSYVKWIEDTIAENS
Plasma kallikrein, sequence (P03952 20-390 limits assumed): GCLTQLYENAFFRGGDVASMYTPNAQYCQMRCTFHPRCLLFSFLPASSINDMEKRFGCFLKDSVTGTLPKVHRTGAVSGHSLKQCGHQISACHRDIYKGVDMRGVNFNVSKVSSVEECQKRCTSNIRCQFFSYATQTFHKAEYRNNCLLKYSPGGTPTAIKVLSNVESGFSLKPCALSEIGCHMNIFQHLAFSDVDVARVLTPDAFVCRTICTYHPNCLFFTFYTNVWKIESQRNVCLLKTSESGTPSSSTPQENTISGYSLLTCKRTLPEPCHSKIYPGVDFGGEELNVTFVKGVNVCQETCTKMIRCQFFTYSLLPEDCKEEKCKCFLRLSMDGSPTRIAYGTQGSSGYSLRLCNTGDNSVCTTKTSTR
Plasma kallikrein, sequence (P03952 391-638 limits assumed): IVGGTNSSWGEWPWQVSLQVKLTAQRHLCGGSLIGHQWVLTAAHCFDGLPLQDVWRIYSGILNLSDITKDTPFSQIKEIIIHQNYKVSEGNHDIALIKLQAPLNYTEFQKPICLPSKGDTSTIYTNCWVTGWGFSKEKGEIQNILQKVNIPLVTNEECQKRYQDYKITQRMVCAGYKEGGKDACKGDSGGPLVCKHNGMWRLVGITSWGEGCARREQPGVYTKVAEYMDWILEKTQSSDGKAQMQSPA

Ki (Kallikrein-1) | Structure (SMILES) | further results
 | NC[C@H]1CC[C@H](C(=O)NC(Cc2ccc(Oc3ncccn3)cc2)C(=O)Nc2cccc(C(=O)O)c2)CC1 (some centres undefined) | IC50 (Plasma kallikrein): 0.71 µM
0.031 µM | N=C(N)c1ccc(OCc2ccc(COc3ccc(C(=N)N)cc3I)cc2)c(I)c1 | 
0.81 µM | N=C(N)c1cc(Br)c(OCCCCCOc2c(Br)cc(C(=N)N)cc2Br)c(Br)c1 | 
 | O=C(OCc1ccccc1)c1cccc(OC(=O)N2C(=O)[C@@H](Cc3ccc(O)cc3)[C@H]2C(=O)OCc2ccccc2)c1 | IC50 [1]: 0.226 µM
